The test concerns the target T1, Tyrosine-protein phosphatase non-receptor type 11 (Homo sapiens, UniProt Q06124).
T1 sequence (Q06124 whole entry): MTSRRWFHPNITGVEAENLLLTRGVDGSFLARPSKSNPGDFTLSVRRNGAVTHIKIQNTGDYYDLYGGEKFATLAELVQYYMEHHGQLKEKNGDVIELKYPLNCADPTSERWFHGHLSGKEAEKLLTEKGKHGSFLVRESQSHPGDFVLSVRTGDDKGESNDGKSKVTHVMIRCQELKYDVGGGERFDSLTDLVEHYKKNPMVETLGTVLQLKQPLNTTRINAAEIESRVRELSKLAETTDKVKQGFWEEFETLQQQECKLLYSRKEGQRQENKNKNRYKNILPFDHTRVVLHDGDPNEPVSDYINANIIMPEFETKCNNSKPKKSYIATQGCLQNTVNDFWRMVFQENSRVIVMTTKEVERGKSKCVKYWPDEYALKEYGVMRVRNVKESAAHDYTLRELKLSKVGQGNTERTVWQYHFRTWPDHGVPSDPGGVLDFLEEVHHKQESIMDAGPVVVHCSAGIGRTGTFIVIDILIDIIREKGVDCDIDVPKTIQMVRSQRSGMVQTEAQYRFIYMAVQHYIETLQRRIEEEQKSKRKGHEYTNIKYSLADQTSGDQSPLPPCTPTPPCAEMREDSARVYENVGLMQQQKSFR
As to the kind of experiment: Allosteric Inhibition Assay.

Where only a bound is given, the exact number is not on record here.

Regarding `N[C@@H]1c2ccccc2CC12CCN(c1cnc(/C(=N/O)c3ccccc3)cn1)CC2` [US10934302, Example 257], the IC50 (commonly the midpoint of a concentration-inhibition curve) is less than 50 nM.
Molecule `N[C@@H]1c2ccccc2CC12CCN(c1cnc(SCC3CC3)cn1)CC2` [US10934302, Example 266] had an IC50 of less than 50 nM.
In the case of `Cc1cc(C(=O)N2CCC3(CC2)Cc2ccccc2[C@H]3N)nn1-c1ccc(F)cc1F` [US10934302, Example 289] it was less than 50 nM.

(Values after BindingDB's records for patent US10934302 (Relay Therapeutics, 2021).)
